The text below walks through data of paper PMC11182572, “Mining Bovine Milk Proteins for DPP-4 Inhibitory Peptides Using Machine Learning and Virtual Proteolysis” (Research, 2024).

The target in assay [1] is T1, DPP-4 (Homo sapiens, UniProt P27487).
T1 construct: purchased Sigma-Aldrich Co., St. Louis, MO, USA
Description: DPP-4 inhibitory activity (Gly-Pro-p-nitroanilide substrate). Type of assay: biochemical. Conditions: for pIC50: 25 μl sample + 25 μl Gly-Pro-p-nitroanilide (3.2 mM), preincubated 37 °C 10 min, 50 μl DPP-4 (0.02 U/ml), 60 min, 100 mM tris buffer (pH 7.6), absorbance at 405 nm. On the procedure:
Determination of DPP-4 inhibitory activity
The DPP-4 inhibitory activity of the synthesized peptides was determined as previously described, with slight modifications. Briefly, 25 μl of the sample and 25 μl of Gly-Pro-p-nitroanilide (3.2 mM) were preincubated at 37 °C for 10 min before 50 μl of DPP-4 (0.02 U/ml) was added to the mixture (Sigma-Aldrich Co., St. Louis, MO, USA). After 60 min, the reaction was halted by adding 100 μl of 1 M sodium acetate solution. The absorbance at 405 nm was measured using a microplate reader (Thermo Fisher Scientific, Waltham, MA, USA). DPP-4 inhibition (DI) was calculated as follows: DI%=1−Asample−Asample blank/Apositive−Anegative×100% (5) where A(sample) represents the optical density of DPP-4 in the presence of both the substrate and peptide. A(sample blank) represents the optical density of the 100 mM tris buffer (pH 7.6). A(positive) represents the optical density of the enzyme and substrate in the absence of an inhibitor. A(negative) represents the optical density of the enzyme in the absence of substrate and inhibitor.

Assay [2] deals with T1, DPP-4. The following applies: methodologies differ among studies; cited from earlier work.

pIC50: −log10 of the molar value. Read-outs that look alike come from different tables or passages of the source. No end group written: not given here.

What is called pIC50 is the IC50 on a negative log10 scale, so that one unit is a factor of ten.

T1 sequence (P27487 whole entry, species assumed): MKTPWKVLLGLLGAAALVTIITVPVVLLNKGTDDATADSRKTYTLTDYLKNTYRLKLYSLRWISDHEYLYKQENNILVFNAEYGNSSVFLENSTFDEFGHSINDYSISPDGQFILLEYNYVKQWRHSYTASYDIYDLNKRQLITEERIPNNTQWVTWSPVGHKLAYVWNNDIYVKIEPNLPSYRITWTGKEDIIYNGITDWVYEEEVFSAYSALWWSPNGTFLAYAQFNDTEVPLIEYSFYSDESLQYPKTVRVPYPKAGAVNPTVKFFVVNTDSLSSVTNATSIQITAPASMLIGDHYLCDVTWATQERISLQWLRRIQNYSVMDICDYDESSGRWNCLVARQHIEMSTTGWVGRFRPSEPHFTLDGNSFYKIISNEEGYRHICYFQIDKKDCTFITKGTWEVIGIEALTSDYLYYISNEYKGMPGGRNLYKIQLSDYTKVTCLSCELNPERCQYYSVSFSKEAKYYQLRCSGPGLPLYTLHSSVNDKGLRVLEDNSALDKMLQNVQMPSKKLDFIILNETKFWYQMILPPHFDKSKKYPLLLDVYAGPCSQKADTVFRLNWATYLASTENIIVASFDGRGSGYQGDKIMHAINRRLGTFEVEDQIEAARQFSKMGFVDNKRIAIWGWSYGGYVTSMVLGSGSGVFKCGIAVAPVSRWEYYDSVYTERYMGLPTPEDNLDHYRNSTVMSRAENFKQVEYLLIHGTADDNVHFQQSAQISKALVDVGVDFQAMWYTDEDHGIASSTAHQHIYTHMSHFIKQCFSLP

Consider “FVAPFPEV [peptide from α-S1-casein, pepsin (pH 1.3), pepsin (pH > 2); synthesized]”, for which, at DPP-4 [1] (in vitro), the “DPP-4 inhibitory effect (in words)” value was “poor inhibitory effect”.

Turning to GPVRGPF [GPVRGPF], the negative-log IC50 (pIC50) at DPP-4 [1] is 3.19.

As for HPHPHL [HPHPHL], the negative-log IC50 (pIC50) at DPP-4 [1] is 2.79.

Turning to “TPEVDDEALEK [peptide from previous study [6]]”, in the assay with DPP-4 [2], the pIC50 is 3.49.
